Data as given in patent US20260013505A1, “Herbicidal Compositions Comprising Diclosulam” (BASF SE, priority 2024, published 2026).

Columns and labels:
Assay type in all cases: in vivo
Ipomoea triloba = test: Example 1 post-emergence field trial, IPOTR; conditions: 14 DAT, growth stage 35
Protocol: (§1) In the examples below, using the method of S. R. Colby (1967) “Calculating synergistic and antagonistic responses of herbicide combinations”, Weeds 15, p. 22ff., the value E, which is expected if the activity of the individual active compounds is only additive, was calculated:
(§2) [formula] • where • X=percent activity using active herbicide A at an application rate a; • Y=percent activity using active herbicide B (e.g. diclosulam) at an application rate b; • E=expected activity (in %) by A+B at application rates a+b.
(§3) If the value found experimentally is higher than the value E calculated according to Colby, a synergistic effect is present.
(§4) On field test sites, natural weed infestation or seeded weeds were treated post-emergence of the weeds.
(§5) In the field trials, the weeds were treated as indicated below.
(§6) In the following experiments, the herbicidal activity for the individual herbicidal compositions (solo and mixture applications) was assessed at the indicated days after treatment (DAT). The assessments for the damage on undesired weeds caused by the composition was carried out using a scale from 0 to 100%, compared to the untreated control plants. Here, 0 means no damage and 100 means complete destruction of the plants. […]

Amaranthus viridis = test: Example 2 post-emergence field trial, AMAVI; conditions: 21 DAT, growth stage 16-18
Protocol: as §1, §2, §3, §4, §5, §6

Euphorbia heterophylla = test: Example 1 post-emergence field trial, EPHHL; conditions: B solo 30 g ai/ha, 14 DAT, growth stage 35
Protocol: as §1, §2, §3, §4, §5, §6

Cenchrus echinatus = test: Example 1 post-emergence field trial, CCHEC; conditions: B solo 30 g ai/ha, 14 DAT, growth stage 18-31
Protocol: as §1, §2, §3, §4, §5, §6

Portulaca oleracea = test: Example 2 post-emergence field trial, POROL; conditions: B solo 30 g ai/ha, 21 DAT, growth stage 14-16
Protocol: as §1, §2, §3, §4, §5, §6

Sorghum vulgare = test: Example 2 post-emergence field trial, SORVU; conditions: B solo 30 g ai/ha, 14 DAT, growth stage 14-15
Protocol: as §1, §2, §3, §4, §5, §6

Eleusine indica [1] = test: Example 2 post-emergence field trial, ELEIN; conditions: B solo 30 g ai/ha, 21 DAT, growth stage 21-25
Protocol: as §1, §2, §3, §4, §5, §6

Amaranthus hybridus = test: Example 1 post-emergence field trial, AMACH; conditions: B solo 30 g ai/ha, 14 DAT, growth stage 35
Protocol: as §1, §2, §3, §4, §5, §6

Eleusine indica [2] = test: Example 1 post-emergence field trial, ELEIN; conditions: B solo 30 g ai/ha, 14 DAT, growth stage 18-31
Protocol: as §1, §2, §3, §4, §5, §6

Digitaria horizontalis = test: Example 1 post-emergence field trial, DIGHO; conditions: B solo 30 g ai/ha, 14 DAT, growth stage 18-31
Protocol: as §1, §2, §3, §4, §5, §6

Brachiaria plantaginea = test: Example 1 post-emergence field trial, BRAPL; conditions: B solo 30 g ai/ha, 14 DAT, growth stage 21-25
Protocol: as §1, §2, §3, §4, §5, §6

Structure (SMILES)	% herbicidal activity (Ipomoea triloba; A-1 solo 25 g ai/ha)	% herbicidal activity (Amaranthus viridis; A-1 solo 25 g ai/ha)	% herbicidal activity (Euphorbia heterophylla)	% herbicidal activity (Cenchrus echinatus)	% herbicidal activity (Portulaca oleracea)	% herbicidal activity (Sorghum vulgare)	% herbicidal activity (Eleusine indica [1])	% herbicidal activity (Amaranthus hybridus)	% herbicidal activity (Eleusine indica [2])	% herbicidal activity (Digitaria horizontalis)	% herbicidal activity (Ipomoea triloba; B solo 30 g ai/ha)	% herbicidal activity (Amaranthus viridis; B solo 30 g ai/ha)	% herbicidal activity (Brachiaria plantaginea)
CCOC(=O)COc1ccccc1Oc1nc(-n2c(=O)cc(C(F)(F)F)n(C)c2=O)c(F)cc1Cl [A-1, ethyl 2-[2-[[3-chloro-5-fluoro-6-[3-methyl-2,6-dioxo-4-(trifluoromethyl)pyrimidin-1-yl]-2-pyridyl]oxy]phenoxy]acetate]	61%	69%											
CCOc1nc(F)cc2nc(S(=O)(=O)Nc3c(Cl)cccc3Cl)nn12 [B, diclosulam]			16%	20%	58%	32%	0%	22%	0%	0%	17%	65%	3%
